22 compounds from US20240246964A1 (Arbutus Biopharma Corporation, priority 2021, published 2024) can be followed below.

What is called EC50 is the concentration that produces a half-maximal response. Low readings indicate higher potency in that assay, high ones lower potency in that assay.

SMILES strings stand for the structures. “And” between values parts separate entries of the source, which are not always exact repeats. Identical values can stand only once.

Sequence of human PD-L1 (Q9NZQ7 19-290): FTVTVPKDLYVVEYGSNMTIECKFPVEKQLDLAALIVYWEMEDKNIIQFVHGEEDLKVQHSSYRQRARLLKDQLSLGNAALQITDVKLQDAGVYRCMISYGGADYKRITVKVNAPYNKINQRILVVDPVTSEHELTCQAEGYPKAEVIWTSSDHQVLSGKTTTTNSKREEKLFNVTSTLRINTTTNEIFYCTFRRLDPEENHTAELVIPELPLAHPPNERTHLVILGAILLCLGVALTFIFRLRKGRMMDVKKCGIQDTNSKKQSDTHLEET

This experiment has as its target human PD-L1 (Homo sapiens (Human), UniProt Q9NZQ7). In words: T cell activation luciferase reporter cell culture system (T Cell Activation Assay). Type of experiment: cell-based. The following applies: luciferase reporter assay; PD-L1 aAPC/CHO-K1 cells with PD-1 effector Jurkat T cells. In general terms: A reporter such as luciferase makes a cellular process visible.
Turning to `COc1cc(-c2nccc(-c3cccc(-c4ccc(CNC[C@@H]5CCC(=O)N5)c(OC)n4)c3Cl)c2Cl)cc2c1CN(CCO)CC2` [Cmpd 54, (S)-5-((((6-(2-chloro-3-(3-chloro-2-(2-(2-hydroxyethyl)-8-methoxy-1,2,3,4-tetrahydroisoquinolin-6-yl)pyridin-4-yl)phenyl)-2-methoxypyridin-3-yl)methyl)amino)methyl)pyrrolidin-2-one], the half-maximal effective concentration (EC50) was 24.3 nM and 21.5 nM. The compound `COc1cc(-c2nccc(-c3cccc(-c4ccc5c(CNC6CCN(C(C)=O)CC6)cn(C)c5n4)c3Cl)c2Cl)ccc1CNC[C@@H]1CCC(=O)N1` [Cmpd 57, (S)-5-(((4-(4-(3-(3-(((1-acetylpiperidin-4-yl)amino)methyl)-1-methyl-1H-pyrrolo[2,3-b]pyridin-6-yl)-2-chlorophenyl)-3-chloropyridin-2-yl)-2-methoxybenzyl)amino)methyl)pyrrolidin-2-one] had an EC50 of 19.8 nM. As to `COc1cc(-c2nccc(-c3cccc(-c4ccc5c(CNC[C@@H]6CCO6)cn(C)c5n4)c3Cl)c2Cl)ccc1CNC[C@@H]1CCC(=O)N1` [Cmpd 58, (S)-5-(((4-(3-chloro-4-(2-chloro-3-(1-methyl-3-(((((S)-oxetan-2-yl)methyl)amino)methyl)-1H-pyrrolo[2,3-b]pyridin-6-yl)phenyl)pyridin-2-yl)-2-methoxybenzyl)amino)methyl)pyrrolidin-2-one], the EC50 is 37.3 nM. With `COc1cc(-c2nccc(-c3cccc(-c4ccc5c(CNC6CCOCC6)cn(C)c5n4)c3Cl)c2Cl)ccc1CNC[C@@H]1CCC(=O)N1` [Cmpd 59, (S)-5-(((4-(3-chloro-4-(2-chloro-3-(1-methyl-3-(((tetrahydro-2H-pyran-4-yl)amino)methyl)-1H-pyrrolo[2,3-b]pyridin-6-yl)phenyl)pyridin-2-yl)-2-methoxybenzyl)amino)methyl)pyrrolidin-2-one], the EC50 came out at 50.8 nM. Compound `COc1cc(-c2nccc(-c3cccc(-c4ccc5c(CNC6CCS(=O)(=O)CC6)cn(C)c5n4)c3Cl)c2Cl)ccc1CNC[C@@H]1CCC(=O)N1` [Cmpd 60, (S)-5-(((4-(3-chloro-4-(2-chloro-3-(3-(((1,1-dioxidotetrahydro-2H-thiopyran-4-yl)amino)methyl)-1-methyl-1H-pyrrolo[2,3-b]pyridin-6-yl)phenyl)pyridin-2-yl)-2-methoxybenzyl)amino)methyl)pyrrolidin-2-one] returned an EC50 of 44.6 nM.

`COc1nc(-c2cccc(-c3ccnc(-c4cc(F)c5c(c4)CCN(C[C@@H]4CCC(=O)N4)C5)c3Cl)c2Cl)ccc1CNC[C@@H]1CCC(=O)N1` [Cmpd 61, (S)-5-((((6-(2-chloro-3-(3-chloro-2-(8-fluoro-2-(((S)-5-oxopyrrolidin-2-yl)methyl)-1,2,3,4-tetrahydroisoquinolin-6-yl)pyridin-4-yl)phenyl)-2-methoxypyridin-3-yl)methyl)amino)methyl)pyrrolidin-2-one] came in with an EC50 of 75.5 nM. Compound `COc1cc(-c2nccc(-c3cccc(-c4ccc(CNC[C@@H]5CCC(=O)N5)c(OC)n4)c3Cl)c2Cl)cc2c1CN(CC1CCN(C(C)=O)CC1)CC2` [Cmpd 62, (S)-5-((((6-(3-(2-(2-((1-acetylpiperidin-4-yl)methyl)-8-methoxy-1,2,3,4-tetrahydroisoquinolin-6-yl)-3-chloropyridin-4-yl)-2-chlorophenyl)-2-methoxypyridin-3-yl)methyl)amino)methyl)pyrrolidin-2-one] showed an EC50 of 27 nM. In turn, `COc1cc(-c2nccc(-c3cccc(-c4ccc(CNC[C@@H]5CCC(=O)N5)c(OC)n4)c3Cl)c2Cl)cc2c1CN(CCCF)CC2` [Cmpd 63, (S)-5-((((6-(2-chloro-3-(3-chloro-2-(2-(3-fluoropropyl)-8-methoxy-1,2,3,4-tetrahydroisoquinolin-6-yl)pyridin-4-yl)phenyl)-2-methoxypyridin-3-yl)methyl)amino)methyl)pyrrolidin-2-one] showed an EC50 of 40.8 nM. `COc1cc(-c2nccc(-c3cccc(-c4ccc(CNC[C@@H]5CCC(=O)N5)c(OC)n4)c3Cl)c2Cl)cc2c1CN(CCC1CCNCC1)CC2` [Cmpd 64, (S)-5-((((6-(2-chloro-3-(3-chloro-2-(8-methoxy-2-(2-(piperidin-4-yl)ethyl)-1,2,3,4-tetrahydroisoquinolin-6-yl)pyridin-4-yl)phenyl)-2-methoxypyridin-3-yl)methyl)amino)methyl)pyrrolidin-2-one] registered an EC50 of 71.9 nM. For the compound `COc1nc(-c2cccc(-c3ccnc(-c4cc(F)c5c(c4)CCN(CCCF)C5)c3Cl)c2Cl)ccc1CNC[C@@H]1CCC(=O)N1` [Cmpd 65, (S)-5-((((6-(2-chloro-3-(3-chloro-2-(8-fluoro-2-(3-fluoropropyl)-1,2,3,4-tetrahydroisoquinolin-6-yl)pyridin-4-yl)phenyl)-2-methoxypyridin-3-yl)methyl)amino)methyl)pyrrolidin-2-one], the EC50 stood at 194 nM.

For the compound `COc1nc(-c2cccc(-c3ccnc(-c4cc(Cl)c5c(c4)CCN(C[C@@H]4CCC(=O)N4)C5)c3Cl)c2Cl)ccc1CNC[C@@H]1CCC(=O)N1` [Cmpd 67, (S)-5-((((6-(2-chloro-3-(3-chloro-2-(8-chloro-2-(((S)-5-oxopyrrolidin-2-yl)methyl)-1,2,3,4-tetrahydroisoquinolin-6-yl)pyridin-4-yl)phenyl)-2-methoxypyridin-3-yl)methyl)amino)methyl)pyrrolidin-2-one], it took 101 nM to reach a half-maximal effect (EC50).

`COc1cc(-c2nccc(-c3cccc(-c4ccc(CNC[C@@H]5CCC(=O)N5)c(OC)n4)c3Cl)c2Cl)ccc1CN1CCC[C@H]1C(=O)OC(C)C` [Cmpd 68, isopropyl (4-(3-chloro-4-(2-chloro-3-(6-methoxy-5-(((((S)-5-oxopyrrolidin-2-yl)methyl)amino)methyl)pyridin-2-yl)phenyl)pyridin-2-yl)-2-methoxybenzyl)-L-prolinate] came in with a 50% effective concentration (EC50) of 413 nM. The result for `COc1nc(-c2cccc(-c3ccnc(-c4cc(Cl)c5c(c4)CCN(C[C@H](C)O)C5)c3Cl)c2Cl)ccc1CNC[C@@H]1CCC(=O)N1` [Cmpd 69, (S)-5-((((6-(2-chloro-3-(3-chloro-2-(8-chloro-2-((S)-2-hydroxypropyl)-1,2,3,4-tetrahydroisoquinolin-6-yl)pyridin-4-yl)phenyl)-2-methoxypyridin-3-yl)methyl)amino)methyl)pyrrolidin-2-one] reads 56.6 nM.

In turn, `COc1cc(-c2nccc(-c3cccc(-c4ccc(CNC[C@@H]5CCC(=O)N5)c(OC)n4)c3Cl)c2Cl)ccc1CNCCO` [Cmpd 70, (S)-5-((((6-(2-chloro-3-(3-chloro-2-(4-(((2-hydroxyethyl)amino)methyl)-3-methoxyphenyl)pyridin-4-yl)phenyl)-2-methoxypyridin-3-yl)methyl)amino)methyl)pyrrolidin-2-one] returned an EC50 of 49.4 nM. In the case of `COc1cc(-c2nccc(-c3cccc(-c4cc(Cl)c(CNC[C@@H]5CCC(=O)N5)c(OC)n4)c3Cl)c2Cl)ccc1CN(C)C[C@H](C)O` [Cmpd 71, (S)-5-((((4-chloro-6-(2-chloro-3-(3-chloro-2-(4-((((S)-2-hydroxypropyl)(methyl)amino)methyl)-3-methoxyphenyl)pyridin-4-yl)phenyl)-2-methoxypyridin-3-yl)methyl)amino)methyl)pyrrolidin-2-one], the 50% effective concentration (EC50) is 30.6 nM. In turn, `COc1nc(-c2cccc(-c3ccnc(-c4cc(Cl)c5c(c4)CCN(CCCF)C5)c3Cl)c2Cl)ccc1CNC[C@@H]1CCC(=O)N1` [Cmpd 72, (S)-5-((((6-(2-chloro-3-(3-chloro-2-(8-chloro-2-(3-fluoropropyl)-1,2,3,4-tetrahydroisoquinolin-6-yl)pyridin-4-yl)phenyl)-2-methoxypyridin-3-yl)methyl)amino)methyl)pyrrolidin-2-one] showed an EC50 of 392 nM. Take `COc1cc(-c2nccc(-c3cccc(-c4ccc(CNC[C@@H]5CCC(=O)N5)c(OC)n4)c3Cl)c2Cl)cc2c1CN(CCC1(O)CC1)CC2` [Cmpd 74, (S)-5-((((6-(2-chloro-3-(3-chloro-2-(2-(2-(1-hydroxycyclopropyl)ethyl)-8-methoxy-1,2,3,4-tetrahydroisoquinolin-6-yl)pyridin-4-yl)phenyl)-2-methoxypyridin-3-yl)methyl)amino)methyl)pyrrolidin-2-one]: the EC50 was determined as 70 nM. In the case of `COc1cc(-c2nccc(-c3cccc(-c4ccc(CNC[C@@H]5CCC(=O)N5)c(OC)n4)c3Cl)c2Cl)ccc1CN(C)C[C@H](C)O` [Cmpd 75, (S)-5-((((6-(2-chloro-3-(3-chloro-2-(4-((((S)-2-hydroxypropyl)(methyl)amino)methyl)-3-methoxyphenyl)pyridin-4-yl)phenyl)-2-methoxypyridin-3-yl)methyl)amino)methyl)pyrrolidin-2-one], the EC50 came out at 16 nM. `COc1cc(-c2nccc(-c3cccc(-c4ccc(CNC[C@@H]5CCC(=O)N5)c(OC)n4)c3Cl)c2Cl)ccc1CN1CC[C@H](C(=O)OC(C)C)C1` [Cmpd 76, isopropyl (S)-1-(4-(3-chloro-4-(2-chloro-3-(6-methoxy-5-(((((S)-5-oxopyrrolidin-2-yl)methyl)amino)methyl)pyridin-2-yl)phenyl)pyridin-2-yl)-2-methoxybenzyl)pyrrolidine-3-carboxylate] had a concentration giving a half-maximal response (EC50) of 89.7 nM.

`COc1cc(-c2nccc(-c3cccc(-c4ccc(CNC[C@@H]5CCC(=O)N5)c(OC)n4)c3Cl)c2Cl)ccc1CN1CC[C@H](C(=O)O)C1` [Cmpd 77, (S)-1-(4-(3-chloro-4-(2-chloro-3-(6-methoxy-5-(((((S)-5-oxopyrrolidin-2-yl)methyl)amino)methyl)pyridin-2-yl)phenyl)pyridin-2-yl)-2-methoxybenzyl)pyrrolidine-3-carboxylic acid] had an EC50 of 105 nM. Compound `COc1cc(-c2nccc(-c3cccc(-c4ccc(CNC[C@@H]5CCC(=O)N5)c(OC)n4)c3Cl)c2Cl)ccc1CN1CCC[C@H]1C(=O)O` [Cmpd 78, (4-(3-chloro-4-(2-chloro-3-(6-methoxy-5-(((((S)-5-oxopyrrolidin-2-yl)methyl)amino)methyl)pyridin-2-yl)phenyl)pyridin-2-yl)-2-methoxybenzyl)-L-proline] had an EC50 of 205 nM.

`COc1cc(-c2nccc(-c3cccc(-c4ccc(CNC[C@@H]5CCC(=O)N5)c(OC)n4)c3Cl)c2Cl)cc(F)c1CN[C@H]1C[C@](C)(O)C1` [Cmpd 79] displayed a concentration for a half-maximal effect (EC50) of 50.6 nM.
